Patent US20240294522A1 (Lead Discovery Center GmbH, priority 2021, published 2024)
pIC50: −log10 of the molar value.

Tests used:
GRK5 = biological target: T1, GRK5 (Homo sapiens, UniProt P34947); assay: Lance Kinase Activity Assay, GRK5; settings: biochemical Lance kinase activity assay; class symbols A-F; read-out: GRK5 LANCE Assay (IC-50)
T1 construct: purchased Thermo Scientific
How it was run: (§1)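 IC50s from sigmoidal dose-response over 0.0025-10 μM compound, with phosphorylated ULight substrate detected by Eu anti-phospho antibody FRET after EDTA quench.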

GRK2 = biological target: T2, GRK2 (Homo sapiens, UniProt P25098); assay: Lance Kinase Activity Assay, GRK2; settings: biochemical Lance kinase activity assay; class symbols A-F; read-out: GRK2 LANCE Assay (IC-50)
T2 construct: purchased Thermo Scientific
T2 sequence (P25098 1-689): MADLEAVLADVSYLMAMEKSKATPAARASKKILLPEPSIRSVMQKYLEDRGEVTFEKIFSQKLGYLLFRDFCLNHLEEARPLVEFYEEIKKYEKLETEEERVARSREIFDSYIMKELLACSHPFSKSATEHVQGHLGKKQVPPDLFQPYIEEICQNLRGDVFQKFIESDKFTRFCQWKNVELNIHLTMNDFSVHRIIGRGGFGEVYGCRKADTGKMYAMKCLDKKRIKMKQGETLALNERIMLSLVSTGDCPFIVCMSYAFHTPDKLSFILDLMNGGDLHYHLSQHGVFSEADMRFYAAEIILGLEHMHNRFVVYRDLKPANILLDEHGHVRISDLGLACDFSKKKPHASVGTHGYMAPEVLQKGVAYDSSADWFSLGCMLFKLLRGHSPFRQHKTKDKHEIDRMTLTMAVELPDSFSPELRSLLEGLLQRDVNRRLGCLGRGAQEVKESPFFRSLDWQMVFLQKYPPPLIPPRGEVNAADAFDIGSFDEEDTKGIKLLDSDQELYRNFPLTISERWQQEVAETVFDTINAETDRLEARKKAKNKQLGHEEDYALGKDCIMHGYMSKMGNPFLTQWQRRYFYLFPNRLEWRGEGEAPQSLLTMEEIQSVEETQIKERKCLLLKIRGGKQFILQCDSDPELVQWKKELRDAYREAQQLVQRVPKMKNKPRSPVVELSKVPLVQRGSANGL
How it was run: as §1

T1 sequence (P34947 whole entry): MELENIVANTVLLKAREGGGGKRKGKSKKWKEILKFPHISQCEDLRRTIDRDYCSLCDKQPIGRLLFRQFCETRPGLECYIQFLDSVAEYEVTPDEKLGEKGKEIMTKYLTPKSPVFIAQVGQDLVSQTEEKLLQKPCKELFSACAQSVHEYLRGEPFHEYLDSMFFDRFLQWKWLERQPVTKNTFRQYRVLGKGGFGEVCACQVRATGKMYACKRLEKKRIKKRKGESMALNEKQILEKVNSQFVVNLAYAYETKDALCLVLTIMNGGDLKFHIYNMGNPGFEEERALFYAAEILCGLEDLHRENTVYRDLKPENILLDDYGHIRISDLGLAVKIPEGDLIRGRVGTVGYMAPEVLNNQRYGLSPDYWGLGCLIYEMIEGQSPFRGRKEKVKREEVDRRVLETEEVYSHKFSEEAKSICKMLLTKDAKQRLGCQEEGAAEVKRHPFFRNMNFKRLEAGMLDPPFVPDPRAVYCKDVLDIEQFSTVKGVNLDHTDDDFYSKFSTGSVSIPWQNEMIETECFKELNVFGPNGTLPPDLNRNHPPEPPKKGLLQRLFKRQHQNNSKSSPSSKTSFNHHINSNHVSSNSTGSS

SMILES | pIC50 (GRK5) | pIC50 (GRK2)
COc1ccc([C@@H](C)NC(=O)/C=C/c2c[nH]c3ncc(-c4cccc(CS(C)(=O)=O)c4)cc23)cc1OC [Example 217, (R,E)-N-(1-(3,4-dimethoxyphenyl)ethyl)-3-(5-(3-((methylsulfonyl)methyl)phenyl)-1H-pyrrolo[2,3-b]pyridin-3-yl)acrylamide] | ≥ 7.30 | 5.00 to 6.00
C[C@@H](NC(=O)/C(C#N)=C/c1c[nH]c2ncccc12)c1cccc(C(F)(F)F)c1 [Example 18, (R,E)-2-cyano-3-(1H-pyrrolo[2,3-b]pyridin-3-yl)-N-(1-(3-(trifluoromethyl)phenyl)ethyl)acrylamide] | 6.30 to 7.00 | 6.00 to 6.30
COc1ccc([C@@H](C)NC(=O)/C=C/c2c[nH]c3ncc(-c4ccccc4S(C)(=O)=O)cc23)cc1OC [Example 222, (R,E)-N-(1-(3,4-dimethoxyphenyl)ethyl)-3-(5-(2-(methylsulfonyl)phenyl)-1H-pyrrolo[2,3-b]pyridin-3-yl)acrylamide] | 5.00 to 6.00 | < 5.00
COc1ccc([C@@H](C)NC(=O)/C=C/c2c[nH]c3ncc(-c4cccc(C#N)c4)cc23)cc1OC [Example 221, (R,E)-3-(5-(3-cyanophenyl)-1H-pyrrolo[2,3-b]pyridin-3-yl)-N-(1-(3,4-dimethoxyphenyl)ethyl)acrylamide] | ≥ 7.30 | < 5.00
CC(NC(=O)/C(C#N)=C/c1c[nH]c2ncccc12)c1ccc(F)cc1 (stereo not shown) [Example 63, (E)-2-cyano-N-(1-(4-fluorophenyl)ethyl)-3-(1H-pyrrolo[2,3-b]pyridin-3-yl)acrylamide] | 6.30 to 7.00 | 6.30 to 7.00
C[C@@H](NC(=O)/C(C#N)=C/c1c[nH]c2ncccc12)c1ccccc1 [Example 64, (R,E)-2-cyano-N-(1-phenylethyl)-3-(1H-pyrrolo[2,3-b]pyridin-3-yl)acrylamide] | 7.00 to 7.30 | 6.30 to 7.00
COc1ccc([C@@H](C)NC(=O)/C(C#N)=C/c2c[nH]c3ncc(-c4cnn(C)c4)c(C)c23)cc1OC [Example 99, (R,E)-2-cyano-N-(1-(3,4-dimethoxyphenyl)ethyl)-3-(4-methyl-5-(1-methyl-1H-pyrazol-4-yl)-1H-pyrrolo[2,3-b]pyridin-3-yl)acrylamide] | 6.30 to 7.00 | < 5.00
COc1ccc([C@@H](C)NC(=O)/C=C/c2c[nH]c3nccc(-c4ccc(OCCN(C)C)cc4)c23)cc1OC [Example 230, (R,E)-N-(1-(3,4-dimethoxyphenyl)ethyl)-3-(4-(4-(2-(dimethylamino)ethoxy)phenyl)-1H-pyrrolo[2,3-b]pyridin-3-yl)acrylamide] | ≥ 7.30 | 5.00 to 6.00
N#C/C(=C\c1c[nH]c2ncccc12)C(=O)NCc1ccccc1CN1CCCC1=O [Example 44, (E)-2-cyano-N-(2-((2-oxopyrrolidin-1-yl)methyl)benzyl)-3-(1H-pyrrolo[2,3-b]pyridin-3-yl)acrylamide] | 5.00 to 6.00 | 5.00 to 6.00
COc1ccc([C@@H](C)NC(=O)/C(C#N)=C/c2c[nH]c3ncc(-c4ccc(N5CCN(C)CC5)cc4)c(C)c23)cc1OC [Example 244, (R,E)-2-cyano-N-(1-(3,4-dimethoxyphenyl)ethyl)-3-(4-methyl-5-(4-(4-methylpiperazin-1-yl)phenyl)-1H-pyrrolo[2,3-b]pyridin-3-yl)acrylamide] | 6.00 to 6.30 | 5.00 to 6.00
CC[S+]([O-])c1cccc(-c2ccnc3[nH]cc(/C=C/C(=O)N[C@H](C)c4ccc(OC)c(OC)c4)c23)c1 (stereo partly drawn) [Example 239, (E)-N-((R)-1-(3,4-dimethoxyphenyl)ethyl)-3-(4-(3-(ethylsulfinyl)phenyl)-1H-pyrrolo[2,3-b]pyridin-3-yl)acrylamide] | 6.00 to 6.30 | < 5.00
COc1ccc([C@@H](C)NC(=O)/C(C#N)=C/c2c[nH]c3ncc(-c4ccc(OCCCN(C)C)cc4)cc23)cc1OC [Example 138] | ≥ 7.30 | 6.00 to 6.30
Cc1nn(C)c2ccc([C@@H](C)NC(=O)/C(C#N)=C/c3c[nH]c4ncc(-c5cnn(C)c5)cc34)cc12 [Example 262, (R,E)-2-cyano-N-(1-(1,3-dimethyl-1H-indazol-5-yl)ethyl)-3-(5-(1-methyl-1H-pyrazol-4-yl)-1H-pyrrolo[2,3-b]pyridin-3-yl)acrylamide] | ≥ 7.30 | < 5.00
COc1ccc([C@@H](C)NC(=O)/C=C/c2c[nH]c3ncc(-c4cc(F)cc(S(C)(=O)=O)c4)cc23)cc1OC [Example 249, (R,E)-N-(1-(3,4-dimethoxyphenyl)ethyl)-3-(5-(3-fluoro-5-(methylsulfonyl)phenyl)-1H-pyrrolo[2,3-b]pyridin-3-yl)acrylamide] | ≥ 7.30 | 5.00 to 6.00
C[C@@H](NC(=O)/C(C#N)=C/c1c[nH]c2ncccc12)c1ccccc1Cl [Example 12, (R,E)-N-(1-(2-chlorophenyl)ethyl)-2-cyano-3-(1H-pyrrolo[2,3-b]pyridin-3-yl)acrylamide] | 6.30 to 7.00 | 6.00 to 6.30
CN(C)CCC(NC(=O)/C(C#N)=C/c1c[nH]c2ncccc12)c1ccccc1 (stereo not shown) [Example 48, (E)-2-cyano-N-(3-(dimethylamino)-1-phenylpropyl)-3-(1H-pyrrolo[2,3-b]pyridin-3-yl)acrylamide] | ≥ 7.30 | 7.00 to 7.30

Now from value to molecule:

pIC50 (GRK5) | pIC50 (GRK2) | SMILES
≥ 7.30 | < 5.00 | COc1ccc([C@@H](C)NC(=O)/C(C#N)=C/c2c[nH]c3ncc(-c4cccc(N5CCN(C)CC5)c4)cc23)cc1OC [Example 122, (R,E)-2-cyano-N-(1-(3,4-dimethoxyphenyl)ethyl)-3-(5-(3-(4-methylpiperazin-1-yl)phenyl)-1H-pyrrolo[2,3-b]pyridin-3-yl)acrylamide]
≥ 7.30 | 5.00 to 6.00 | COc1ccc([C@@H](C)NC(=O)/C(C#N)=C/c2c[nH]c3ncc(-c4cnn(C)c4)cc23)cc1OC [Example 164]
≥ 7.30 | 5.00 to 6.00 | COc1ccc([C@@H](C)NC(=O)/C(C#N)=C/c2c[nH]c3ncc(-c4cccc(CN5CCN(C(C)=O)CC5)c4)cc23)cc1OC [Example 141, (R,E)-3-(5-(3-((4-acetylpiperazin-1-yl)methyl)phenyl)-1H-pyrrolo[2,3-b]pyridin-3-yl)-2-cyano-N-(1-(3,4-dimethoxyphenyl)ethyl)acrylamide]
6.30 to 7.00 | < 5.00 | COc1ccc([C@@H](C)NC(=O)/C(C#N)=C/c2c[nH]c3ncc(-c4cccc(N(C)C)c4)cc23)cc1OC [Example 128, (R,E)-2-cyano-N-(1-(3,4-dimethoxyphenyl)ethyl)-3-(5-(3-(dimethylamino)phenyl)-1H-pyrrolo[2,3-b]pyridin-3-yl)acrylamide]
6.30 to 7.00 | < 5.00 | COc1ccc([C@@H](C)NC(=O)/C(C#N)=C/c2c[nH]c3ncc(-c4cnn(Cc5ccccc5)c4)cc23)cc1OC [Example 159]
5.00 to 6.00 | < 5.00 | COc1ccc([C@@H](C)NC(=O)/C(C#N)=C/c2c[nH]c3ncc(-c4ccccc4CN4CCCCC4)cc23)cc1OC [Example 129, (R,E)-2-cyano-N-(1-(3,4-dimethoxyphenyl)ethyl)-3-(5-(2-(piperidin-1-ylmethyl)phenyl)-1H-pyrrolo[2,3-b]pyridin-3-yl)acrylamide]
6.00 to 6.30 | < 5.00 | COc1ccc([C@@H](C)NC(=O)/C(C#N)=C/c2c[nH]c3ncc(-c4cccc5cnn(C)c45)cc23)cc1OC [Example 150]
